Measurements published in patent US11702408B2, “5-membered aza-heterocyclic containing delta-opioid receptor modulating compounds, methods of using and making the same” (Trevena, Inc., priority 2017, dated 2023).

Experiments:
adult male C57 mice = test: Tail suspension test (TST); format: in vivo, mouse; conditions: TST route sc, p < 0.05 compared to vehicle-treated mice
Method: The experiments were performed using adult male C57 mice (6-10 weeks of age, 20-30 g, Hilltop Lab, PA). The mice were housed in standard rodent cages with stainless steel mesh wire bar lids in groups of 4 with controlled temperature and light cycle (6:00 a.m.-6:00 p.m.). Animals were given free access to food (Harlan Teklad Global 18% protein (Madison, Wis.)) and water during a minimum 2-day habituation period to the laboratory. Animals that were used in the study were handled, housed, and sacrificed (using compressed CO2) in accord with the current NIH guidelines regarding the use and care of laboratory animals, and all applicable local, state, and federal regulations and guidelines. Animals are identified by cage number, and by markings applied to the proximal tip of the tail using a permanent marker. Group sizes (n=8, and therefore 30-50 animals per study) provide reliable estimates of treatment effects, and this species and strain of mouse has been recognized as appropriate for pharmacology studies.
To measure efficacy of the compounds the compounds were tested using a tail suspension test. The tail suspension test is a behavioral test used to evaluate the efficacy of antidepressant drugs in rodents. In the TST, mice (n=8/group) were suspended by the tail with tape approximately 30-50 cm above the lab bench. Mice are positioned such that the base of their tail is perpendicular to the lab bench. Each mouse is given 1 trial that last 6 minutes. The total duration of immobility is calculated as the percentage of time that the mouse is immobile. The duration of immobility is the main parameter measured. This is calculated from the cumulated time during which the animals is absent of initiated movements including passive swaying. When antidepressant drugs are administered, immobility is decreased by a variety of classes of antidepressant drugs. One or more of the compounds show antidepressant activity.

[1] = target: T1, delta-opioid receptor (Accession NP_000902) (Homo sapiens, UniProt P41143); test: cAMP assay (receptor G-protein mediated response, HTRF); format: cell-based
T1 sequence (P41143 whole entry): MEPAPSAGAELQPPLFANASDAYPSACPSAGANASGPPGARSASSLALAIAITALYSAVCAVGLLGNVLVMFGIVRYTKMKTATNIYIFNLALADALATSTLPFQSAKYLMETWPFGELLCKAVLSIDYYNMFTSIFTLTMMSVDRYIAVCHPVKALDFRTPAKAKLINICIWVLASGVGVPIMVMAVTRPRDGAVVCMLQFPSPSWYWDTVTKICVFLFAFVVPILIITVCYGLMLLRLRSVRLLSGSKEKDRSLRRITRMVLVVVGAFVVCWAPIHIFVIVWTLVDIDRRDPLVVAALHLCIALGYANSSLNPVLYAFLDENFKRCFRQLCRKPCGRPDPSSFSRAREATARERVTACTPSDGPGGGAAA
Method: (§1) Plasmids encoding delta-opioid receptor (Accession NP_000902), mu-opioid receptor (Accession NP_000905) and kappa-opioid receptor (Accession Assession NP_000903) were generated in the pCMV-Prolink backbone and transfected into an EA-arrestin parental human embryonic kidney (HEK-293) cell line from DiscoveRx Corporation. Clonal stable lines were subsequently selected under G418.
Cell lines were grown adherently in Minimum Essential Media (Cellgro cat #10-010-CM) containing 10% fetal bovine serum (Hyclone cat #SH30071.03), 4 mM glutamine (Cellgro cat #25-005-CI), 150 ug/ml hygromycin B (Cellgro cat #30-240-CR), 150 ug/ml G418 (Cellgro cat #30-234-CR), and 50 u/50 ug penicillin/streptomycin (Lonza cat #17-603E). […]
Receptor G-protein mediated responses were determined by measuring changes in intracellular cAMP using CisBio HTRF cAMP HiRange kit (cat #62AM6PEJ) based on time-resolved fluorescence resonance energy transfer (TR-FRET). […] Following a 30 minute incubation at 37° C. the components of the cAMP HiRange kit were added as directed and the plates were read after 1 hour on a BMG PheraStar plate reader. Responses were measured as the ratio of fluorescence at 665 nm/620 nm per manufacturer's instructions.

[2] = target: T1, delta-opioid receptor (Accession NP_000902); test: β-arrestin recruitment assay (DiscoveRx PathHunter); format: cell-based; conditions: β-arrestin pathway, HEK-293 stable line
Method: as §1
Cell lines were grown adherently in Minimum Essential Media (Cellgro cat #10-010-CM) containing 10% fetal bovine serum (Hyclone cat #SH30071.03), 4 mM glutamine (Cellgro cat #25-005-CI), 150 ug/ml hygromycin B (Cellgro cat #30-240-CR), 150 ug/ml G418 (Cellgro cat #30-234-CR), and 50 u/50 ug penicillin/streptomycin (Lonza cat #17-603E). Prior to the assay cells were removed from the flasks with CellStripper (Cellgro cat #25-056-CI), repeatedly pipetted to disperse cells, and spun at low speed for 5 min at room temperature. Cells were then resuspended at 250,000 cells/ml in growth media and plated at 5,000 cells/well in 384 well plates (Greiner part #784080). […]
Receptor mediated beta-arrestin recruitment was determined using the DiscoveRx β-arrestin PathHunter Detection kit (cat #93-0001). […] Following a 60 minute incubation at 37° C. the components of the DiscoveRx β-arrestin PathHunter Detection kit were added as directed and the plates were read after 1 hour on a BMG PheraStar plate reader.

Row | Structure (SMILES) | Active TST Dose (adult male C57 mice) [mg/kg] | further results
1 | CCCN1C[C@H](COc2ccc3c(c2)C(=O)NC3)[C@@H](c2ccc(F)cc2)C1 [Compound A0045] | ≤10 | –
2 | CCCN1C[C@H](COc2ccc3c(c2)C(=O)NC3)[C@H](c2ccc(F)cc2)C1 [Compound A0073] | ≤30 | –
3 | CCCN1C[C@@H](COc2ccc3c(c2)C(=O)NC3)[C@H](c2ccc(F)cc2)C1 [Compound A0090] | ≤10 | –
4 | CCCN1C[C@H](COc2ccc3c(c2)C(=O)NC3)[C@H](c2ccccc2)C1 [Compound A0095] | ≤10 | –
5 | O=C1NCc2ccc(OC[C@@H]3CN(CC4CC4)C[C@H]3c3ccc(F)cc3)cc21 [Compound A0105] | ≤10 | –
6 | CCCN1C[C@H](COc2ccc3c(c2)C(=O)NC3)[C@H](c2ccc(F)c(F)c2)C1 [Compound A0108] | ≤10 | –
7 | CCCN1C[C@H](COc2ccc3c(c2)C(=O)NC3)[C@H](c2ccc(OCCN3C(=O)CCC3=O)cc2)C1 [Compound A0113] | ≤10 | –
8 | COc1ccc([C@@H]2CN(CC3CC3)C[C@@H]2COc2ccc3c(c2)C(=O)NC3)cc1F [Compound A0116] | – | Active TST Dose (adult male C57 mice; po): ≤30 mg/kg
9 | CCCN1C[C@@]2(COc3ccc4c(c3)C(=O)NC4)C[C@@]2(c2cccc(F)c2)C1 [Compound A0128] | – | Active TST Dose (adult male C57 mice; po): ≤30 mg/kg
10 | Fc1ccc([C@@H]2CCNC[C@H]2COc2ccc3c(c2)OCO3)cc1 [Paroxetine, paroxetine] | – | hDOR G Span ([1]; G-protein (cAMP) pathway, HEK-293 stable line): <100; selectivity for the delta-opioid receptor ([1]; versus mu- and kappa-opioid receptor): non-selective agonist; hDOR B Span [2]: <100; EC50 ([2]; read-out: hDOR B pEC50 (converted)): > 1000 nM
